Assay results published in US12068729B2, “Anti-factor XII/XIIa antibodies and uses thereof” (Regeneron Pharmaceuticals, Inc., priority 2018, dated 2024).

Assays:
[1] = system: thrombin generated via the Extrinsic and Common pathways; assay: Thrombin Generation Assay (TGA) triggered by Tissue Factor; type: biochemical, human
Text: (§1) This Example describes the inhibitory activity of selected antibodies, as determined by four functional plasma assays: 1) Activated Partial Thromboplastin Time (aPTT), 2) Prothrombin Time (PT), 3) Thrombin Generation Assay (TGA) triggered by ellagic acid and 4) TGA triggered by Tissue Factor. The aPTT test evaluates all clotting factors of the Intrinsic and Common pathways of the coagulation cascade by measuring time for a clot to form after the addition of calcium and ellagic acid, whereas the PT test evaluates all clotting factors of the Extrinsic and Common pathways of the coagulation cascade after the addition of calcium and Tissue Factor. The TGA triggered by ellagic acid measures the rate and amount of thrombin generated via the Intrinsic and Common pathways whereas TGA triggered by Tissue Factor measures the rate and amount of thrombin generated via the Extrinsic and Common pathways.
The thrombin generation profile was determined in a Thermo Scientific Hemker Thrombinoscope in the following manner: A total of 55 ul of pooled normal human plasma was added to a well of a microplate at 37° C. Then 5 ul of a 2× serially diluted test article (antibody or small molecule inhibitor) in PBS was added to the well of the microplate and allowed to incubate for 30 min. 15 ul of Tissue Factor PPP Reagent (Diagnostica Stago) was added to the well and allowed to incubate for 45 min. Then 15 ul of Fluo Flu Cal substrate (Diagnostica Stago) was added immediately before a continuous 90 min reading of the microplate. The measured real-time thrombin concentration values were plotted against time to yield a thrombogram profile for each concentration of the test article used.

[2] = system: Extrinsic and Common pathways of the coagulation cascade; assay: Prothrombin Time (PT) in pooled normal human plasma; type: biochemical
Text: as §1
(§2) The PT was determined on Diagnostica Stago STart4 Hemostasis Analyzer in the following manner. A total of 50 ul of pooled normal human plasma was added to a cuvette at 37° C. […] The measured clot time for the test article concentration was normalized to baseline (no drug) plasma clot time and plotted against log molar concentration of the test article. The results were analyzed using nonlinear regression (4-parameter logistics) with Prism 5 software (GraphPad) to obtain doubling time concentration.

[3] = system: thrombin generated via the Intrinsic and Common pathways; assay: Thrombin Generation Assay (TGA) triggered by ellagic acid; type: biochemical, human; conditions: for Concentration required for ↑ lag time by 2× / Concentration required for ↓ endogenous thrombin potential by ½ / Concentration required for ↓ thrombin peak by ½: Intrinsic Pathway Activation with Ellagic Acid
Text: as §1
The thrombin generation profile was determined in a Thermo Scientific Hemker Thrombinoscope in the following manner: A total of 55 ul of pooled normal human plasma was added to a well of a microplate at 37° C. Then 5 ul of a 2× serially diluted test article (antibody or small molecule inhibitor) in PBS was added to the well of the microplate and allowed to incubate for 30 min. 15 ul of APPT-XL Ellagic Acid (Thermo Scientific) was diluted in MP reagent then added to the well and allowed to incubate for 45 min. Then 15 ul of Fluo Flu Cal substrate (Diagnostica Stago) was added immediately before a continuous 90 min reading of the microplate. The measured real-time thrombin concentration values were plotted against time to yield a thrombogram profile for each concentration of the test article used.

[4] = system: Intrinsic and Common pathways of the coagulation cascade; assay: Activated Partial Thromboplastin Time (aPTT) in pooled normal human plasma; type: biochemical
Text: as §1, with “The TGA triggered by ellagic acid measures the rate and amount of thrombin generated via the Intrinsic and Common pathways whereas TGA triggered by Tissue Factor measures the rate and amount of thrombin generated via the Extrinsic and Common pathways.” left out
as §2, with “aPTT” for “PT”, “manner:” for “manner.”

[5] = Extrinsic Pathway Activation with Tissue Factor
[6] = conc. of drug required to increase clotting time by 2-fold over baseline
[7] = dose response curves, pooled normal human plasma

With COc1ccc(-n2nc(C(N)=O)c3c2C(=O)N(c2ccc(N4CCCCC4=O)cc2)CC3)cc1 [Apixaban, reference compound] the “Concentration required for ↑ lag time by 2×” value (shortened to “Concentration required … by 2×”) [1, 5] was 250 nM, the “Concentration required for ↓ endogenous thrombin potential by ½” value [1, 5] was 250 nM and the “Concentration required for ↓ thrombin peak by ½” value [1, 5] was 62.5 nM. The “effect on thrombin generation (in words)” value ([1]; plasma triggered by Tissue Factor) was “dose dependently inhibited thrombin generation”, the “C2xt of Prothrombin Time (PT) - Extrinsic Pathway” value [2, 6] was 3.5 µM and the “effect on plasma PT (in words)” value [2, 7] was “prolonged both aPTT and PT with uM concentrations”. For the same compound, the “Concentration required … by 2×” value [3] was > 500 nM, the “Concentration required for ↓ endogenous thrombin potential by ½” value [3] was > 500 nM and the “Concentration required for ↓ thrombin peak by ½” value [3] was > 500 nM. For the same compound, the “Concentration required … by 2×” value ([3]; dash cells, dose up to 500 nM) was “— (no effect on thrombin generation with a dose up to 500 nM)”, the “Concentration required for ↓ endogenous thrombin potential by ½” value ([3]; dash cells, dose up to 500 nM) was “— (no effect on thrombin generation with a dose up to 500 nM)” and the “Concentration required for ↓ thrombin peak by ½” value ([3]; dash cells, dose up to 500 nM) was “— (no effect on thrombin generation with a dose up to 500 nM)”. For the same compound, the “effect on thrombin generation (in words)” value ([3]; plasma triggered by ellagic acid) was “dose dependent reduction in thrombin generation”, the “C2xt of activated Partial Thromboplastin Time (aPTT) - Intrinsic Pathway” value [4, 6] was 7 µM and the “effect on plasma aPTT (in words)” value [4, 7] was “prolonged both aPTT and PT with uM concentrations”.
